Source: article PMC11114115 (Molecular Pharmacology, 2024)

Target: human M3R (M3 muscarinic acetylcholine receptor) (Homo sapiens, UniProt P20309)
Assay: cell-based

human M3R (M3 muscarinic acetylcholine receptor), sequence (P20309 whole entry): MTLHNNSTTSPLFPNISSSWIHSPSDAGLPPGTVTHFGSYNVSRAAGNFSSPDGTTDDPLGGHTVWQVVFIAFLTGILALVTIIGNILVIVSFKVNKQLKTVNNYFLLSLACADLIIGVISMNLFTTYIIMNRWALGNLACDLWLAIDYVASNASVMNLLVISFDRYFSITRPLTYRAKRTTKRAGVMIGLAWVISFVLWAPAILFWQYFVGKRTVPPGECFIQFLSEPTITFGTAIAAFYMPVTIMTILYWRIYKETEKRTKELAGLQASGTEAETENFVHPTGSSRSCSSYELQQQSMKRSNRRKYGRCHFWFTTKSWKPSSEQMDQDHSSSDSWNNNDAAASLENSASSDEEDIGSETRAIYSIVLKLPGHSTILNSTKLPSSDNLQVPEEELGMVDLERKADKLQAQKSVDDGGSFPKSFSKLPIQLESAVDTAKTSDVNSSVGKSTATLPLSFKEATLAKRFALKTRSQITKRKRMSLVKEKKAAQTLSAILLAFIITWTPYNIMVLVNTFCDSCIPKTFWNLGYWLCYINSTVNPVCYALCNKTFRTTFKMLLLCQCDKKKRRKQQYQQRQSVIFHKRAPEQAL

How did the EC50 turn out when `C[N+](C)(C)CC#CCN1CCCC1=O` [Oxotremorine-M] was run?
The EC50 was 0.0126 µM.
